Consider nine compounds from PubChem BioAssay AID220 (DTP/NCI, 2004).

The subject of the experiment is CD8F1 mice, subcutaneous mammary adenocarcinoma, T/C%. Kind of experiment: NCI In Vivo Anticancer Drug Screen. Data for tumor model Mammary Adenocarcinoma CD8F1 (subcutaneous) in CD8F1. The following applies: higher = larger tumour. In short, it runs like this:
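Transplantable tumors were established in mice, animals were dosed with compound or vehicle, and survival or tumor size was then measured in both groups. The treated result was divided by the control result.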

Where [1] appears, read: endpoint: median tumor weight (est.), dose: 12.5 mg/kg/injection, schedule: Q07DX005 (ip), vehicle: saline with Tween-80.
Setting [2] is: endpoint: median tumor weight (est.), dose: 50.0 mg/kg/injection, schedule: Q07DX005 (ip), vehicle: saline with Tween-80.
[3] abbreviates: endpoint: median tumor weight (est.), dose: 200.0 mg/kg/injection, schedule: Q07DX005 (ip), vehicle: saline with Tween-80.
Setting [4] is: endpoint: median tumor weight (est.), dose: 400.0 mg/kg/injection, schedule: Q07DX005 (ip), vehicle: saline with Tween-80.
Setting [5] is: endpoint: median tumor weight (est.), dose: 100.0 mg/kg/injection, schedule: Q07DX005 (ip), vehicle: saline with Tween-80.

Structures are written as SMILES. Several values for one entry are separate records, joined by “and”; a condition that tells them apart may be missing. Identical values can stand only once. Inconclusive results are not listed.

Take `Clc1ccc(C2SC=Cc3ccccc32)cc1` (stereo not drawn): the T/C was 88 % of control (endpoint: median tumor weight change, dose: 62.0 mg/kg/injection, schedule: Q01DX001 (ip), vehicle: Klucel (hydroxypropylcellulose) (HPC)); 50 % of control and 54 % of control and 58 % of control (endpoint: median tumor weight change, dose: 250.0 mg/kg/injection, schedule: Q01DX001 (ip), vehicle: Klucel (hydroxypropylcellulose) (HPC)).
Turning to `CC(Cc1ccc(O)cc1)NCC(O)c1ccc(O)c(O)c1` (stereo not drawn), the T/C by setting is: under setting [1], 49 % of control; (endpoint: median tumor weight (est.), dose: 25.0 mg/kg/injection, schedule: Q07DX005 (ip), vehicle: saline with Tween-80) 90 % of control; under setting [2], 106 % of control; under setting [3], 110 % of control; under setting [4], 84 % of control.
As for `O=C(Oc1ccccc1)c1cc(O)c(O)c(O)c1`, the T/C runs as follows: (endpoint: median tumor weight change, dose: 150.0 mg/kg/injection, schedule: Q01DX001 (ip), vehicle: suspension in saline) 98 % of control; (endpoint: median tumor weight change, dose: 300.0 mg/kg/injection, schedule: Q01DX001 (ip), vehicle: suspension in saline) 111 % of control.
Consider `CCCCCCCCCCCCCCCCCCOCC(COP(=O)([O-])OCC[N+](C)(C)C)OC` (stereo not drawn), for which the T/C (endpoint: median tumor weight change, dose: 1.95 mg/kg/injection, schedule: Q01DX001 (ip), vehicle: saline) is 97 % of control; the T/C (endpoint: median tumor weight change, dose: 3.9 mg/kg/injection, schedule: Q01DX001 (ip), vehicle: saline) was 67 % of control; the T/C (endpoint: median tumor weight change, dose: 7.8 mg/kg/injection, schedule: Q01DX001 (ip), vehicle: saline) is 95 % of control; the T/C (endpoint: median tumor weight change, dose: 15.62 mg/kg/injection, schedule: Q01DX001 (ip), vehicle: saline) was 48 % of control; the T/C (endpoint: median tumor weight change, dose: 31.0 mg/kg/injection, schedule: Q01DX001 (ip), vehicle: suspension in saline) is 79 % of control; the T/C (endpoint: median tumor weight change, dose: 31.25 mg/kg/injection, schedule: Q01DX001 (ip), vehicle: saline) is 100 % of control. Besides, the T/C (endpoint: median tumor weight change, dose: 62.0 mg/kg/injection, schedule: Q01DX001 (ip), vehicle: suspension in saline) was 75 % of control.
In the case of `Nc1nc2c(ncn2C2OC(CO)C(O)C2O)c(=O)[nH]1` (stereo not drawn), the T/C is 86 % of control under setting [5]; 92 % of control under setting [3]; 110 % of control under setting [4]; 88 % of control (endpoint: median tumor weight (est.), dose: 800.0 mg/kg/injection, schedule: Q07DX005 (ip), vehicle: saline with Tween-80); 103 % of control (endpoint: median tumor weight (est.), dose: 1600.0 mg/kg/injection, schedule: Q07DX005 (ip), vehicle: saline with Tween-80); 84 % of control (endpoint: median tumor weight (est.), dose: 3200.0 mg/kg/injection, schedule: Q07DX005 (ip), vehicle: saline with Tween-80).
As to `O=C(O)CC(=O)O.[NH-]CC[NH-].[Pt+2]`, the T/C is, setting by setting: (endpoint: median tumor weight (est.), dose: 14.06 mg/kg/injection, schedule: Q07DX005 (ip), vehicle: dextrose) 14 % of control; (endpoint: median tumor weight (est.), dose: 28.13 mg/kg/injection, schedule: Q07DX005 (ip), vehicle: dextrose) 25 % of control; (endpoint: median tumor weight (est.), dose: 56.25 mg/kg/injection, schedule: Q07DX005 (ip), vehicle: dextrose) 14 % of control; (endpoint: median tumor weight (est.), dose: 112.5 mg/kg/injection, schedule: Q07DX005 (ip), vehicle: dextrose) 13 % of control; (endpoint: median tumor weight (est.), dose: 225.0 mg/kg/injection, schedule: Q07DX005 (ip), vehicle: dextrose) 3 % of control.
Turning to `COc1cc2cc(c1Cl)N(C)C(=O)CC(OC(=O)CC(C)C)C1(C)OC1C(C)C1CC(O)(NC(=O)O1)C(OC)/C=C/C=C(C)C2` (stereo not drawn), the T/C runs as follows: (endpoint: median tumor weight (est.), dose: 18.7 micrograms/kg/injection, schedule: Q07DX005 (ip), vehicle: saline + alcohol) 76 % of control; (endpoint: median tumor weight (est.), dose: 37.5 micrograms/kg/injection, schedule: Q07DX005 (ip), vehicle: saline + alcohol) 80 % of control; (endpoint: median tumor weight (est.), dose: 75.0 micrograms/kg/injection, schedule: Q07DX005 (ip), vehicle: saline + alcohol) 85 % of control.
For the compound `CC(C)[C@](O)(C(=O)OCC1=CCN2CC[C@@H](O)[C@@H]12)[C@H](C)O`, the T/C runs as follows: (endpoint: median tumor weight change, dose: 125.0 mg/kg/injection, schedule: Q01DX001 (ip), vehicle: water) 78 % of control; (endpoint: median tumor weight change, dose: 250.0 mg/kg/injection, schedule: Q01DX001 (ip), vehicle: water) 179 % of control.
`NC(=S)N/N=C/c1ccc(O)cn1`: the T/C reads like this: (endpoint: mean tumor weight, dose: 12.5 mg/kg/injection, schedule: Q07DX005 (ip), vehicle: saline with Tween-80) 101 % of control; (endpoint: mean tumor weight, dose: 25.0 mg/kg/injection, schedule: Q07DX005 (ip), vehicle: saline with Tween-80) 75 % of control; (endpoint: mean tumor weight, dose: 50.0 mg/kg/injection, schedule: Q07DX005 (ip), vehicle: saline with Tween-80) 58 % of control; (endpoint: mean tumor weight, dose: 100.0 mg/kg/injection, schedule: Q07DX005 (ip), vehicle: saline with Tween-80) 49 % of control; (endpoint: mean tumor weight, dose: 200.0 mg/kg/injection, schedule: Q07DX005 (ip), vehicle: saline with Tween-80) 63 % of control; under setting [1], 106 % of control. Also, the T/C was 59 % of control (endpoint: median tumor weight (est.), dose: 25.0 mg/kg/injection, schedule: Q07DX005 (ip), vehicle: saline); 85 % of control under setting [2]; 76 % of control (endpoint: median tumor weight (est.), dose: 50.0 mg/kg/injection, schedule: Q07DX005 (ip), vehicle: saline); 124 % of control under setting [5]; 105 % of control (endpoint: median tumor weight (est.), dose: 100.0 mg/kg/injection, schedule: Q07DX005 (ip), vehicle: saline); 60 % of control under setting [3]. Also, the T/C reads like this: (endpoint: median tumor weight (est.), dose: 200.0 mg/kg/injection, schedule: Q07DX005 (ip), vehicle: saline) 64 % of control; under setting [4], 52 % of control; (endpoint: median tumor weight (est.), dose: 400.0 mg/kg/injection, schedule: Q07DX005 (ip), vehicle: saline) 44 % of control; (endpoint: median tumor weight (est.), dose: 800.0 mg/kg/injection, schedule: Q07DX005 (ip), vehicle: saline) 2 % of control.
